Assay results published in US20150037372A1, “pH-Responsive High-Density Lipoprotein-Like Particle Complex” (RESEARCH & BUSINESS FOUNDATION SUNGKYUNKWAN UNIVERSITY, priority 2012, published 2015).
Several values for one entry are separate records, joined by “and”; a condition that tells them apart may be missing. Equal values may be shown once.

Tests used:
ICR mice [1] = experiment: Primary in vivo test using apoA-I with endotoxin content of more than 10,000 EU/mg (Example 7-2); details: for body weight loss / ALT / AST / Liver (%): endotoxin-containing apoA-I test; for ALT / AST: serum; for Liver (%): weight of liver relative to body weight
Procedure: (§1) A solution containing the drug Epothilone B (EpoB) was sonicated in the presence of a surfactant (sodium cholate) to encapsulate the EpoB in micelles composed of the surfactant. Then, apoA-I was added to and mixed with the sonicated solution while the concentration of the surfactant was lowered below its critical micelle concentration by dilution. The remaining surfactant was removed by Bio-bead, and the remaining solution was subjected to centrifugation and size exclusion chromatography, thereby preparing an EpoB-encapsulating apoA-I (hereinafter referred to as ‘EpoB-rHDL’).
(§2) EpoB was dissolved in poly ethylene glycol 300 (PEG 300) and then diluted so that the final concentration of PEG 300 was 30% (v/v). In addition, 30% PEG 300 that is a medium for Epothilone B, and apoA-I were selected as negative controls.
(§3) Twenty-eight (seven per group) 6-week-old female ICR mice were purchased from Orientbio Inc. (Korea). The mice were subjected to veterinary inspection for general health conditions and were acclimated to the laboratory environment for 1 week. An animal test was performed in the Laboratory Animal Research Center, Sungkyunkwan University.
(§4) The test material was administered into the tail vein of the grouped ICR mice at a dose of 100 μL once a week for 4 weeks. To verify the toxicity and safety of the test material, the concentration of EpoB encapsulated in apoA-I was measured, and the poB-encapsulating apoA-I or the free EpoB was administered at a dose higher than the maximum tolerated dose of EpoB. For the first 2 weeks, the test material was administered to the ICR mice at a dose of 10 mg/kg, which corresponds four times the maximum tolerated dose of EpoB, and for the next 2 weeks, it was administered at a high EpoB dose of 81 mg/kg. The control apoA-I was administered at a dose corresponding to the concentration of apoA-I in the EpoB-encapsulating apoA-I.
(§5) To observe changes in the body weight of the mice during the test period, the body weight of the mice was measured every day after the start of the test, and diarrhea, hair loss and quadriplegia as the suspected side effects of epoB were observed.
(§6) For liver toxicity analysis, upon the death of the test animals or at the end of the test, the animals were anesthetized with a mixture of Zoletil and Rompun, and then sera were obtained by blood collection from the abdominal aorta. Alanine transferase (ALT) and aspartate transaminase (AST) in the sera were analyzed by an automatic chemistry analyzer.
(§7) Upon the death of the test animals or at the end of the test, the animals were anesthetized with a mixture of Zoletil and Rompun. Next, the liver was harvested and weighed, and the percentage of the weight of the liver relative to the body weight was comparatively analyzed. In addition, the stomach was harvested and observed to the naked eye.
In a primary test, an EpoB-encapsulating apoA-I was prepared using an apoA-I having an endotoxin content of more than 10,000 EU/mg and was administered to ICR mice once a week for 4 weeks.

ICR mice [2] = experiment: In vivo safety test with endotoxin-purified apoA-I (Example 7-3)
Procedure: as §1, §2, §3, §4, §5, §6, §7
Using an apoA-I purified to have an endotoxin content of 5-10 EU/mg, an EpoB-encapsulating apoA-I was prepared according to the method described in Example 7-1(1).
EpoB and the EpoB-encapsulating apoA-I were administered at doses of 10 mg/kg and 81 mg/kg, which are higher than the maximum tolerated dose of EpoB.

[3] = tested on: breast cancer cell line ZR-75-1; experiment: MTT cell viability assay, 72 hours; assay type: cell-based; details: ZR-75-1, overexpresses SR-B1, 72 hours
Procedure: (§8) The MTT assay was performed in the following manner: First, an MTT concentrate obtained by dissolving 3-(4,5-dimethyl-2-thiazolyl)-2,5-diphenyl-2H-tetrazolium bromide (MTT, Calbiochem) in PBS at a concentration of 5 mg/mL was filtered and diluted (10%) to prepare an MTT solution. Meanwhile, the medium and the drug were removed from the cells treated with the drug or the drug-encapsulating apoA-I, and then 100 μL of the prepared MIT solution was seeded into each well and allowed to react at 37° C. in 5% CO2 for 3 hours. After completion of the reaction, the medium and the MTT solution were removed, and 100 μL of 100% DMSO was seeded into each well and allowed to react at room temperature for 20 minutes under a light-shielded condition. After completion of the secondary reaction, the absorbance of the sample at 570 nm was measured using a spectrophotometer (Spectra M2, Molecular device), and the measured value was substituted into the following equation to determine cell viability: […]
(§9) In addition, the cancer cells were treated with free EpoB or the EpoB-encapsulating apoA-I at various EpoB concentrations for 72 hours, and the cell viability for each drug was measured using an MTT (3-(4,5-dimethylthiazol-2-yl)-2,5-diphenyltetrazolium bromide) assay. […]

[4] = tested on: colorectal cancer cell line Caco-2; experiment: MTT cell viability assay, 72 hours; assay type: cell-based; details: Caco-2, overexpresses SR-B1, 72 hours
Procedure: as §8, §9

[5] = high dose 81 mg/kg, week 3 and 4
[6] = each ICR mouse (No. 1-7), * raised by hemolysis, listed as apoA-1
[7] = group average (total), hemolysis values excluded

Question: With `C/C(=C\c1csc(C)n1)[C@@H]1C[C@@H]2O[C@]2(C)CCC[C@H](C)[C@H](O)[C@@H](C)C(=O)C(C)(C)[C@@H](O)CC(=O)O1` [EpoB, Epothilone B, reference compound] as the compound, how does the survival rate (ICR mice [1]; 22 days after the start of administration, tail vein once a week, endotoxin-containing apoA-I) read?
Answer: 100%

Question: And the body weight loss (ICR mice [1])?
Answer: showed a body weight loss

Question: And the ALT (ICR mice [1])?
Answer: 18.1 ± .38 U/L

Question: What about the AST (ICR mice [1]) of the same compound?
Answer: 45.6 ± 9.3 U/L

Question: And the “Liver (%)” value (ICR mice [1])?
Answer: 4.7 ± 0.3%

Question: And the “adverse effects in appearance examination” value (ICR mice [2]; 10 mg/kg at week 1 and week 2)?
Answer: no adverse effects were observed

Question: What about the “gastric hypersensitivity caused by abdominal lymphadenopathy” value (ICR mice [2]; autopsy) of the same compound?
Answer: observed in the control group

Question: And the “Liver (%)” value (ICR mice [2]; each ICR mouse (No. 1-7))?
Answer: 3.45% and 4.19% and 4.85% and 6.48% and 3.79% and 5.12% and 4.33%

Question: And the hair loss (ICR mice [2]; [5])?
Answer: hair loss occurred

Question: And the quadriplegia (ICR mice [2]; [5])?
Answer: quadriplegia

Question: What about the “survival of the mice” value (ICR mice [2]; [5]) of the same compound?
Answer: dead at week 3 and week 4

Question: And the body weight loss (ICR mice [2]; high dose 81 mg/kg, week 3 and 4, EpoB values are of individual animals, 81 mg/kg)?
Answer: about 25% and 7-17% and about 11% and 11.5%

Question: What about the “decrease of AST/ALT ratio compared to control group administered with EpoB” value (ICR mice [2]; mouse, in vivo) of the same compound?
Answer: about 47%

Question: And the “cell viability compared to treatment with the EpoB-encapsulating apoA-I” value [3]?
Answer: higher cell viability

Question: What about the “cell viability compared to treatment with the EpoB-encapsulating apoA-I” value [4] of the same compound?
Answer: higher cell viability

Question: For “apoA-I: recombinant His-tagged human apolipoprotein A-I, 28 kDa, 243 amino acids; carrier protein and negative control”, which body weight loss (ICR mice [1]) is on record?
Answer: higher body weight loss

Question: What about the toxicity (ICR mice [1]; once a week for 4 weeks, apoA-I with endotoxin more than 10,000 EU/mg) of the same compound?
Answer: toxicity was observed

Question: What about the ALT (ICR mice [1]) of the same compound?
Answer: 34.4 ± 16.9 U/L

Question: What about the AST (ICR mice [1]) of the same compound?
Answer: 52.9 ± 13.2 U/L

Question: And the “Liver (%)” value (ICR mice [1])?
Answer: 6 ± 1.1%

Question: And the ALT (ICR mice [2]; [6])?
Answer: 27 U/L and 25 U/L and 29 U/L and 21 U/L and 19 U/L and 15 U/L and 16 U/L

Question: And the AST (ICR mice [2]; [6])?
Answer: 64 U/L and 73 U/L and 56 U/L and 48 U/L and 69 U/L and 41 U/L and 49 U/L

Question: What about the AST/ALTT (ICR mice [2]; [6]) of the same compound?
Answer: 2.37 and 2.92 and 1.93 and 2.29 and 3.63 and 2.73 and 3.06

Question: What about the “Liver (%)” value (ICR mice [2]; each ICR mouse (No. 1-7), listed as apoA-1) of the same compound?
Answer: 3.83% and 3.55% and 4.87% and 3.42% and 4.03% and 5% and 4.13%

Question: And the “Liver (%)” value (ICR mice [2]; group average (total))?
Answer: 4.12 ± 0.57%

Question: And the ALT (ICR mice [2]; [7])?
Answer: 21.71 ± 5.03 U/L

Question: What about the AST (ICR mice [2]; [7]) of the same compound?
Answer: 57.14 ± 11.03 U/L

Question: What about the AST/ALT (ICR mice [2]; [7]) of the same compound?
Answer: 2.70 ± 0.52

Question: And the “survival, body weight change and hair loss” value (ICR mice [2]; high dose of about 266 mg/kg)?
Answer: did not affect the survival, body weight change and hair loss
